# Measurements published in US20240245629A1, “USE OF ATOVAQUONE AND PROGUANIL FOR REDUCING STEROID USE, ALL-CAUSE HOSPITALIZATION, OR ADVANCED THERAPY USE IN A SUBJECT DIAGNOSED WITH INFLAMMATORY BOWEL DISEASE, CROHN'S DISEASE, OR ULCERATIVE COLITIS” (Elevaid Therapeutics, Inc., priority 2020, published 2024).
# “Also recorded” adds a separate entry of the source. Where a name gives a salt, the structure may show the parent alone. Read-outs that look alike come from different tables or passages of the source.
# What was measured:
# [1] = system: DSS-induced murine colitis; conditions: cited from earlier work
# human neutrophils = conditions: by preventing up-regulation of CD11b; cited from earlier work
# [2] = cited from earlier work
# [3] = system: patients with ulcerative colitis; conditions: small human trial; cited from earlier work
# [4] = system: patients with IBD, CD, and UC; assay: Retrospective propensity-matched cohort study (TriNetX), secondary analysis: A/P vs HAV, HCQ, MES; format: in vivo, human; conditions: propensity score matched, within 1 year of exposure
# Method: Using a multi-institutional database, after 1:1 propensity score matching, we identified adult all-cause IBD patients between 2000 and 2019. […] Outcomes were steroid use, hospitalization, or advanced therapy use within 1 year of exposure. The experiments were repeated in Crohn's disease (CD) and ulcerative colitis (UC) patient cohorts. […]
# A retrospective cohort study was performed using a de-identified multi-institutional database with 80 contributing healthcare organizations (HCO), including over 113 million patients (TriNetX Research Network, Cambridge, Massachusetts, date of data access Dec. 7, 2023; IRB exempt). TriNetX regularly aggregates clinical data directly from participating HCOs, primarily in the United States, including extensive data quality and accuracy assessment. Institutional information relating to participating HCOs is also de-identified, however, a typical HCO includes a large academic healthcare center with prevalent capabilities for inpatient services, outpatient services, and specialty care services.
# A second analysis was performed to identify all adult patients (aged≥18 years) diagnosed with IBD, including Crohn's disease (CD, ICD-10: K50) and/or ulcerative colitis (UC, ICD-10: K51), between Jan. 1, 2000, and Dec. 31, 2019. […] The index event for all groups was the time of the patient's first prescription.
# If there were multiple prescriptions, the index event was defined as the date of the first prescription. Information on duration and dosage was not available.
# The outcomes of steroid use (yes/no), hospitalization (yes/no), and advanced therapy use (yes/no) were chosen as they are generally regarded as surrogate markers for IBD activity. Steroid use was defined as a prescription for prednisone, methylprednisolone, or budesonide. All-cause hospitalization was used because TriNetX could not specify a cause for hospitalization. Advanced therapy use was defined as a prescription for adalimumab, certolizumab pegol, golimumab, infliximab, vedolizumab, ustekinumab, tofacitinib, azathioprine, mercaptopurine, or methotrexate. Information on the duration and dosage of outcome drugs was also not available.
# This created a potential for bias in that many patients may experience one or more of the measured outcomes (steroid use, hospitalization, or advanced therapy use) within the first year of their diagnosis as standard of care. Indexing those patients to a time other than the time of their original diagnosis, for example, to a time when they received a prescription for a different medication, would mitigate that bias.
# Comparators that would not only mitigate the index bias, but also address other potential biases, were specifically chosen. […] HAV is also frequently prescribed for travelers, and there happens to be a high degree of geographic overlap among hepatitis A and malaria-endemic regions.
# We performed 1:1 greedy nearest neighbor propensity score matching (caliper of 0.1 standard deviations) to balance cohorts on age, sex, race, comorbid conditions (including cardiovascular, pulmonary, rheumatologic, and renal co-morbidities included in the Charlson Comorbidity Index), presence of prior hospitalization, and use of steroids and IBD advanced therapy (as defined above) to control for baseline disease severity and prior presence of any of the measured outcomes (Table 1, Supplemental Table 1). Differences between groups were calculated using either an independent t-test or a chi-square test as appropriate. Estimates of odds ratios (OR), and 95% confidence intervals (CI) were used to describe the outcome risks. P-values of α<0.05 were considered statistically significant.
# murine colitis = conditions: mouse, in vivo, cited from earlier work
# [5] = system: ulcerative colitis patient
# UC patients = conditions: 60 UC patients; cited from earlier work
# [6] = Crohn's disease, n = 381 per cohort, A/P vs HCQ
# [7] = all-cause IBD, n = 947 per cohort, A/P vs HCQ
# [8] = ulcerative colitis, n = 405 per cohort, A/P vs HCQ
# [9] = Crohn's disease, n = 313 per cohort, A/P vs MES
# [10] = all-cause IBD, n = 624 per cohort, A/P vs MES
# [11] = ulcerative colitis, n = 260 per cohort, A/P vs MES
smiles,measurement,setting,value
"O=C1C(O)=C([C@H]2CC[C@H](c3ccc(Cl)cc3)CC2)C(=O)c2ccccc21 [Atovaquone, trans-2-[4-(4-chlorophenyl)cyclohexyl]-3-hydroxy-1,4-naphthalenedione]",colitis (DSS-induced murine / experimental),[1]; by reducing mucosal neutrophil accumulation,attenuates; also recorded: promoted the resolution
same,S100A9 and CD11b expression on neutrophil surfaces,"[1]; mouse, in vivo",reduction
same,human neutrophil chemotaxis,human neutrophils,directly suppressed
same,solubility in water,[2],practically insoluble
"CCN(CCO)CCCC(C)Nc1ccnc2cc(Cl)ccc12 (stereo not drawn) [HCQ, hydroxychloroquine]",efficacy vs placebo in ulcerative colitis,[3],failed to demonstrate superiority over placebo
same,"all-cause hospitalization, number of patients",[4]; [6],43
same,"steroid use, number of patients",[4]; [6],194
same,"advanced therapy use, number of patients",[4]; [7],277
same,"all-cause hospitalization, number of patients",[4]; [7],118
same,"steroid use, number of patients",[4]; [7],485
same,"advanced therapy use, number of patients",[4]; [8],99
same,"all-cause hospitalization, number of patients",[4]; [8],60
same,"steroid use, number of patients",[4]; [8],211
same,murine colitis and associated cancer,murine colitis,showed efficacy; also recorded: attenuate murine colitis
same,murine colitis and associated cancer,murine colitis; listed as Hydroxychloroquine,decrease the incidence
"Nc1ccc(O)c(C(=O)O)c1 [MES, mesalamine]","all-cause hospitalization, number of patients",[4]; [9],53
same,"steroid use, number of patients",[4]; [9],162
same,"advanced therapy use, number of patients",[4]; [10],182
same,"all-cause hospitalization, number of patients",[4]; [10],92
same,"steroid use, number of patients",[4]; [10],307
same,"advanced therapy use, number of patients",[4]; [11],31
same,"all-cause hospitalization, number of patients",[4]; [11],47
same,"steroid use, number of patients",[4]; [11],111
same,therapeutic effect on colitis,"[5]; 4.8 grams generic tablets daily, day 1",no therapeutic effect
same,adverse event,[5]; in vivo,moderate costochondral chest pain
"[H]/N=C(\N/C(=N/[H])Nc1ccc(Cl)cc1)NC(C)C [Proguanil hydrochloride, 1-(4-chlorophenyl)-5-isopropyl-biguanide]",solubility in water,[2],sparingly soluble
CCN(CC)CCCC(C)Nc1ccnc2cc(Cl)ccc12 (stereo not drawn) [chloroquine],adverse events compared to sulfasalazine,UC patients,fewer
same,remission and response rates compared to sulfasalazine,UC patients,similar
C[C@]12C=CC(=O)C=C1CC[C@@H]1[C@@H]2C(=O)C[C@@]2(C)[C@H]1CC[C@]2(O)C(=O)CO [prednisone],colitis symptoms,"[5]; 40 mg daily, after 7 days",no improvement
CO[C@H]1/C=C/O[C@@]2(C)Oc3c(C)c(O)c4c(O)c(c5c(nc6cc(C)ccn65)c4c3C2=O)NC(=O)/C(C)=C\C=C\[C@H](C)[C@H](O)[C@@H](C)[C@@H](O)[C@@H](C)[C@H](OC(C)=O)[C@@H]1C [rifaximin],colitis symptoms,"[5]; 10-day course, 275 mg TID",symptoms persisted
